Results reported in US8362065B2, “Carbazole carboxamide compounds useful as kinase inhibitors” (Bristol-Myers Squibb Company, priority 2008, dated 2013).
Where a name gives a salt, the structure may show the parent alone.

Biological target: T1, human recombinant Btk (Homo sapiens, UniProt Q06187)
T1 construct: purchased Invitrogen Corporation
Experiment: Human Recombinant Btk Enzyme Assay
Assay type: biochemical
Conditions: human recombinant Btk 1 nM, ATP 20 μM, 60 min at room temperature; read-out: IC50 for Inhibition of Btk

T1 sequence (Q06187 whole entry): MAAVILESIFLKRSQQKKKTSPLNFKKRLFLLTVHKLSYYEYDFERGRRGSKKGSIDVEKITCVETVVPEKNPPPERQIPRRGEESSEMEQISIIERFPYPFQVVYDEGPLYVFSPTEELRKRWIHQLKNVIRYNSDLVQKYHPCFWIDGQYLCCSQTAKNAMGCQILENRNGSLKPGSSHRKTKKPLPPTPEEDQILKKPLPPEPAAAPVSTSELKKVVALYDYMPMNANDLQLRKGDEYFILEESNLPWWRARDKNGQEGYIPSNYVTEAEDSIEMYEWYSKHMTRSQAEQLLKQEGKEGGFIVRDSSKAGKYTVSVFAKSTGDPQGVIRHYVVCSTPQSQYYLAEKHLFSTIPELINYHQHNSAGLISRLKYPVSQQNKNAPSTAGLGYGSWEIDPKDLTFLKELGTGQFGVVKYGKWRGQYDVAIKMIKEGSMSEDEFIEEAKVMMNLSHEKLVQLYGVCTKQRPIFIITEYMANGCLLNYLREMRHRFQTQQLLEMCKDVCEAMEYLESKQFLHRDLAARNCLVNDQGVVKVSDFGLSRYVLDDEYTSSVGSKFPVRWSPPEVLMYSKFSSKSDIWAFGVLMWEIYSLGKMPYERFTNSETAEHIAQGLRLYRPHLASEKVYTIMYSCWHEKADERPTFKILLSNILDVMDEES

Row | IC50 | SMILES
1 | 17 nM | CN1CCN(C(=O)c2ccc3c(c2)[nH]c2c(C(N)=O)ccc(N4CCC[C@@H](NC(=O)Nc5nccs5)C4)c23)CC1 [Example 19-1, (R)-7-(4-methylpiperazine-1-carbonyl)-4-(3-(3-thiazol-2-ylureido)piperidin-1-yl)-9H-carbazole-1-carboxamide]
2 | 510 nM | CN1CCN(C(=O)c2ccc3c(c2)[nH]c2c(C(N)=O)ccc(N4CCCCC4=O)c23)CC1 [Example 20-1, 7-(4-methylpiperazine-1-carbonyl)-4-(2-oxopiperidin-1-yl)-9H-carbazole-1-carboxamide]
3 | 17 nM | Cc1c(NC(=O)c2ccc(F)cc2)cccc1-c1ccc(C(N)=O)c2[nH]c3cc(C(N)=O)ccc3c12 [Example 24-1, 4-(3-(4-fluorobenzamido)-2-methylphenyl)-9H-carbazole-1,7-dicarboxamide]
4 | 15 nM | Cc1c(NC(=O)c2ccc(F)cc2)cccc1-c1ccc(C(N)=O)c2[nH]c3cc(C(=O)N4CCN(CCO)CC4)ccc3c12 [Example 24-17, 4-(3-(4-fluorobenzamido)-2-methylphenyl)-7-(4-(2-hydroxyethyl)piperazine-1-carbonyl)-9H-carbazole-1-carboxamide (prepared as the TFA salt)]
5 | 470 nM | COc1cccc(NC(=O)c2ccc3c(c2)[nH]c2c(C(N)=O)ccc(-c4cccc(NC(=O)c5ccc(F)cc5)c4C)c23)c1 [Example 24-33, 4-(3-(4-fluorobenzamido)-2-methylphenyl)-N^7-(3-methoxyphenyl)-9H-carbazole-1,7-dicarboxamide (prepared as the TFA salt)]
6 | 410 nM | Cc1c(NC(=O)c2ccc(F)cc2)cccc1-c1ccc(C(N)=O)c2[nH]c3cc(C(=O)Nc4ccc(F)cc4)ccc3c12 [Example 24-34, 4-(3-(4-fluorobenzamido)-2-methylphenyl)-N^7-(4-fluorophenyl)-9H-carbazole-1,7-dicarboxamide (prepared as the TFA salt)]
7 | 700 nM | Cc1c(-c2ccc(C(N)=O)c3[nH]c4c(c23)CCC(CO)C4)cccc1N1C(=O)c2ccc(C(C)(C)C)cc2C1=O (stereo not drawn) [Example 31-2, 5-(3-(5-tert-butyl-1,3-dioxoisoindolin-2-yl)-2-methylphenyl)-2-(hydroxymethyl)-2,3,4,9-tetrahydro-1H-carbazole-8-carboxamide]

The next lines start with the compound.

Row | SMILES | IC50
8 | Cc1nc(N)sc1-c1ccc(C(N)=O)c2[nH]c3c(c12)CCC(C(=O)NC1CCOCC1)C3 (stereo not drawn) [Example 4-3, 5-(2-amino-4-methylthiazol-5-yl)-N^2-(tetrahydro-2H-pyran-4-yl)-2,3,4,9-tetrahydro-1H-carbazole-2,8-dicarboxamide] | 390 nM
9 | Cc1c(NC(=O)c2cccnc2)cccc1-c1ccc(C(N)=O)c2[nH]c3cc(C(=O)N4CCN(C)CC4)ccc3c12 [Example 5-7] | 18 nM
10 | Cc1c(NC(=O)c2ncc[nH]2)cccc1-c1ccc(C(N)=O)c2[nH]c3cc(C(=O)N4CCN(C)CC4)ccc3c12 [Example 5-9, 4-(3-(1H-imidazole-2-carboxamido)-2-methylphenyl)-7-(4-methylpiperazine-1-carbonyl)-9H-carbazole-1-carboxamide (prepared as the TFA salt)] | 1.9 nM
11 | Cc1c(NC(=O)c2nc(C(C)C)cs2)cccc1-c1ccc(C(N)=O)c2[nH]c3cc(C(=O)N4CCN(C)CC4)ccc3c12 [Example 5-16] | 18 nM
12 | Cc1c(NC(=O)c2ncccc2O)cccc1-c1ccc(C(N)=O)c2[nH]c3cc(C(=O)N4CCN(C)CC4)ccc3c12 [Example 5-19, 4-(3-(3-hydroxypicolinamido)-2-methylphenyl)-7-(4-methylpiperazine-1-carbonyl)-9H-carbazole-1-carboxamide (prepared as the TFA salt)] | 17 nM
13 | Cc1c(NC(=O)C2(c3ccc(F)cc3)CC2)cccc1-c1ccc(C(N)=O)c2[nH]c3cc(C(=O)N4CCN(C)CC4)ccc3c12 [Example 5-42] | 15 nM
14 | Cc1c(NC(=O)C(C)(C)c2ccc(Cl)cc2)cccc1-c1ccc(C(N)=O)c2[nH]c3cc(C(=O)N4CCN(C)CC4)ccc3c12 [Example 5-44] | 16 nM
15 | Cc1ccc(C(=O)Nc2cccc(-c3ccc(C(N)=O)c4[nH]c5cc(C(=O)N6CCN(C)CC6)ccc5c34)c2C)cc1 [Example 5-58, 4-(2-methyl-3-(4-methylbenzamido)phenyl)-7-(4-methylpiperazine-1-carbonyl)-9H-carbazole-1-carboxamide (prepared as the TFA salt)] | 2.2 nM
16 | Cc1c(NC(=O)CC(C)C)cccc1-c1ccc(C(N)=O)c2[nH]c3cc(C(=O)N4CCN(C)CC4)ccc3c12 [Example 5-62, 4-(2-methyl-3-(3-methylbutanamido)phenyl)-7-(4-methylpiperazine-1-carbonyl)-9H-carbazole-1-carboxamide (prepared as the TFA salt)] | 17 nM
17 | Cc1c(NC(=O)c2ccc(S(N)(=O)=O)cc2)cccc1-c1ccc(C(N)=O)c2[nH]c3cc(C(=O)N4CCN(C)CC4)ccc3c12 [Example 5-69, 4-(2-methyl-3-(4-sulfamoylbenzamido)phenyl)-7-(4-methylpiperazine-1-carbonyl)-9H-carbazole-1-carboxamide (prepared as the TFA salt)] | 2 nM
18 | Cc1c(NC(=O)C2(C#N)CC2)cccc1-c1ccc(C(N)=O)c2[nH]c3cc(C(=O)N4CCN(C)CC4)ccc3c12 [Example 5-73, 4-(3-(1-cyanocyclopropanecarboxamido)-2-methylphenyl)-7-(4-methylpiperazine-1-carbonyl)-9H-carbazole-1-carboxamide (prepared as the TFA salt)] | 18 nM
19 | Cc1nc(NC(=O)c2ccccc2)sc1-c1ccc(C(N)=O)c2[nH]c3c(c12)CCC(C(=O)NC1CCOCC1)C3 (stereo not drawn) [Example 5-86] | 910 nM
20 | Cc1c(NC(=O)Nc2ccccc2)cccc1-c1ccc(C(N)=O)c2[nH]c3cc(C(=O)N4CCN(C)CC4)ccc3c12 [Example 8-3, 4-(2-methyl-3-(3-phenylureido)phenyl)-7-(4-methylpiperazine-1-carbonyl)-9H-carbazole-1-carboxamide] | 16 nM
21 | Cc1c(NS(=O)(=O)CCCCl)cccc1-c1ccc(C(N)=O)c2[nH]c3cc(C(=O)N4CCN(C)CC4)ccc3c12 [Example 10-4, 4-(3-(3-chloropropylsulfonamido)-2-methylphenyl)-7-(4-methylpiperazine-1-carbonyl)-9H-carbazole-1-carboxamide] | 17 nM
22 | Cc1c(Nc2nccc3ccccc23)cccc1-c1ccc(C(N)=O)c2[nH]c3cc(C(=O)N4CCN(C)CC4)ccc3c12 [Example 11-1, 4-(3-(isoquinolin-1-ylamino)-2-methylphenyl)-7-(4-methylpiperazine-1-carbonyl)-9H-carbazole-1-carboxamide] | 15 nM
23 | Cc1c(-c2ccc(C(N)=O)c3[nH]c4cc(C(=O)N5CCN(C)CC5)ccc4c23)cccc1N1CCCS1(=O)=O [Example 12-1, 4-(3-(1,1-dioxoisothiazolidin-2-yl)-2-methylphenyl)-7-(4-methylpiperazine-1-carbonyl)-9H-carbazole-1-carboxamide] | 18 nM
24 | CN1CCN(C(=O)c2ccc3c(c2)[nH]c2c(C(N)=O)ccc(N4CCC[C@@H](N)C4)c23)CC1 [Example 17-1, (R)-4-(3-aminopiperidin-1-yl)-7-(4-methylpiperazine-1-carbonyl)-9H-carbazole-1-carboxamide] | 1100 nM
